Our source for the GI50 and TGI values is PubChem BioAssay (NCI).

Molecules are shown by their SMILES.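 Test compounds were applied to cells in 96-well plates for 48 hours at 5 doses. GI50: concentration for 50% inhibition of growth. TGI is the concentration that stops growth completely.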 *1 amine or outer side, *2 acyl side, *3 side chain or, on linkers, in order; H or OH if unused. Where a SMILES comes first, the peptide text is derived from it. Bridges are numbered along the chain shown (N, C = ends). [ ]: non-standard residue; d: D form. The star is where a group is joined. Phe(3,5-F2) = N[C@@H](Cc1cc(F)cc(F)c1)C(=O)O; Pro(4R-Me) = C[C@H]1CN[C@H](C(=O)O)C1; aThr = C[C@H](O)[C@H](N)C(=O)O; Pip = O=C(O)[C@@H]1CCCCN1; X10 = Fc1cc(C2CC2)ccc1N*; CO = O=C([*:1])[*:2]

Some test systems named below: COLO 205 colon; HCC-2998 colon; HCT-116 colon; HT29 colon; MCF7 breast; MDA-MB-231 breast; NCI/ADR-RES ovarian; OVCAR-8 ovarian; SK-MEL-28 melanoma; SR leukemia.
Holding throughout (assay): growth of human tumour cells (NCI), 48 h

For the compound `C[C@@H]1C[C@H]2C(=O)O[C@@H](C)[C@H](NC(=O)[C@H](Cc3cc(F)cc(F)c3)NC(=O)Nc3ccc(C4CC4)cc3F)C(=O)N3CCC[C@H]3C(=O)N3CCCC[C@H]3C(=O)N[C@@H](C)C(=O)N2C1` ({X10-CO}-[Phe(3,5-F2)][aThr]P[Pip]A[Pro(4R-Me)]; ester 2-C), the GI50 in the experiment on COLO 205 colon was 0.0351 µM; in the experiment with HCC-2998 colon, 0.0402 µM; with HCT-116 colon, 0.0414 µM; in the experiment on HT29 colon, 0.0496 µM; with MCF7 breast, 0.0381 µM; with MDA-MB-231 breast, 0.0402 µM. Besides, the GI50 is 0.354 µM in the experiment on NCI/ADR-RES ovarian, 0.0383 µM with OVCAR-8 ovarian, 0.0781 µM in the experiment on SK-MEL-28 melanoma and 0.0633 µM in the experiment on SR leukemia. The TGI with COLO 205 colon came out at 1.19 µM; in the experiment with HCC-2998 colon it was 1.78 µM; in the experiment with HCT-116 colon it was 2.16 µM; in the experiment with HT29 colon, 7.95 µM; in the experiment with MCF7 breast, 13.9 µM; in the experiment with MDA-MB-231 breast, 1.3 µM. The TGI in the experiment on NCI/ADR-RES ovarian is 45.6 µM; with OVCAR-8 ovarian it was > 100 µM; with SK-MEL-28 melanoma it was 4.99 µM; in the experiment with SR leukemia, 5.67 µM.
Turning to `COc1cc(/C=N\NC(=O)CN2CCN(c3cc4c(cc3F)c(=O)c(C(=O)N/N=C/c3cc(OC)c(OC)c(OC)c3)cn4C3CC3)CC2)cc(OC)c1OC`, the GI50 was 0.45 µM with COLO 205 colon; 0.178 µM in the experiment with HCC-2998 colon; 0.219 µM with HCT-116 colon; 0.278 µM in the experiment on HT29 colon; 0.362 µM in the experiment on MCF7 breast; 0.25 µM in the experiment on MDA-MB-231 breast. Besides, the GI50 was > 100 µM in the experiment on NCI/ADR-RES ovarian, 0.577 µM with OVCAR-8 ovarian, 0.359 µM in the experiment on SK-MEL-28 melanoma and 0.324 µM with SR leukemia. For the same compound, the TGI in the experiment with COLO 205 colon was > 23.2 µM; in the experiment with HCC-2998 colon, 0.33 µM; with HCT-116 colon it was 0.5 µM; with MCF7 breast it was > 100 µM; with MDA-MB-231 breast it was 0.781 µM; in the experiment on NCI/ADR-RES ovarian, > 100 µM. Besides, the values for the TGI in the experiment on OVCAR-8 ovarian, with SK-MEL-28 melanoma and in the experiment with SR leukemia were > 88.5 µM, > 19.8 µM and > 100 µM, respectively.
For the compound `COc1cc2c(c(OC)c1OC)-c1ccc(NNC(N)=S)c(=O)cc1[C@@H](NC(C)=O)CC2`, the GI50 in the experiment on COLO 205 colon was 0.244 µM; with HCC-2998 colon it was 0.263 µM; with HCT-116 colon, 0.348 µM; in the experiment on HT29 colon it was 0.365 µM; in the experiment with MCF7 breast it was 0.372 µM; in the experiment on MDA-MB-231 breast, 0.327 µM. Besides, the GI50 in the experiment on NCI/ADR-RES ovarian is 19.4 µM; in the experiment with OVCAR-8 ovarian, 0.863 µM; with SK-MEL-28 melanoma, 0.777 µM; in the experiment with SR leukemia, 0.279 µM. In addition, the TGI was 0.529 µM in the experiment with COLO 205 colon; > 32.6 µM in the experiment on HCT-116 colon; > 100 µM with HT29 colon; > 100 µM with MCF7 breast; 3.52 µM in the experiment on MDA-MB-231 breast; > 100 µM in the experiment on NCI/ADR-RES ovarian. The TGI with OVCAR-8 ovarian, with SK-MEL-28 melanoma and with SR leukemia was > 100 µM each time.
For the compound `NS(=O)(=O)OC[C@@H]1C[C@@H](n2ccc3c(NC4CCc5ccccc54)ncnc32)C[C@@H]1O` (stereo partly drawn), the GI50 in the experiment with COLO 205 colon was 0.524 µM; in the experiment with HCC-2998 colon, 2.97 µM; in the experiment with HCT-116 colon, 0.103 µM; with HT29 colon, 0.566 µM; in the experiment with MCF7 breast, 0.0386 µM; in the experiment on MDA-MB-231 breast, 10.1 µM. Moreover, the GI50 in the experiment with NCI/ADR-RES ovarian was 68.8 µM; in the experiment on OVCAR-8 ovarian, 0.823 µM; in the experiment with SK-MEL-28 melanoma, 3.94 µM; in the experiment on SR leukemia, 0.0827 µM. For the same compound, the TGI in the experiment on COLO 205 colon was > 51.2 µM; with HCC-2998 colon, 18.2 µM; in the experiment on HCT-116 colon it was 5.46 µM; in the experiment on HT29 colon, 29.2 µM; with MCF7 breast it was > 100 µM; in the experiment on MDA-MB-231 breast, > 100 µM. The TGI with NCI/ADR-RES ovarian is > 100 µM; in the experiment on OVCAR-8 ovarian, 36.7 µM; in the experiment on SK-MEL-28 melanoma it was > 100 µM; in the experiment with SR leukemia, 29.5 µM.
`O=C(CCNC12CC3CC(CC(C3)C1)C2)c1ccccc1`: the TGI with COLO 205 colon is 34.9 µM; with HCC-2998 colon, 26.5 µM; in the experiment with HCT-116 colon, 29.4 µM; with HT29 colon, 23.6 µM; in the experiment with MCF7 breast, 34.9 µM; in the experiment with MDA-MB-231 breast, 69.8 µM. Besides, the TGI amounted to 59.8 µM in the experiment on NCI/ADR-RES ovarian, 45 µM in the experiment with OVCAR-8 ovarian, 75.4 µM with SK-MEL-28 melanoma and 37.1 µM in the experiment with SR leukemia.
As for `Nc1c(C(=O)c2cccc(CCS(N)(=O)=O)c2)cnn1-c1ccc(F)cc1`, the GI50 in the experiment with COLO 205 colon, with HCC-2998 colon, in the experiment on HCT-116 colon, with HT29 colon, with MCF7 breast and in the experiment on MDA-MB-231 breast was > 25 µM throughout. In addition, the GI50 in the experiment with NCI/ADR-RES ovarian, with OVCAR-8 ovarian, with SK-MEL-28 melanoma and with SR leukemia was > 25 µM in each case. Also, the TGI in the experiment with COLO 205 colon, in the experiment on HCC-2998 colon, in the experiment with HCT-116 colon, in the experiment with HT29 colon, in the experiment on MCF7 breast and with MDA-MB-231 breast was > 25 µM each time. The TGI in the experiment with NCI/ADR-RES ovarian, with OVCAR-8 ovarian, in the experiment on SK-MEL-28 melanoma and in the experiment on SR leukemia was > 25 µM throughout.
